Results reported in patent publication US6995283B2, “Benzophenones as inhibitors of reverse transcriptase” (priority 2001, dated 2006).

System: HIV-1 (strain IIIIB)
Assay: MT4 cell assay (propidium iodide readout)
Format: cell-based
Details: Human immunodeficiency virus 1, control and standard, MT4 cells, read-out: expected range of IC50 values
Description: Antiviral HIV activity and compound-induced cytotoxicity were measured in parallel by means of a propidium iodide based procedure in the human T-cell lymphotropic virus transformed cell line MT4. Aliquots of the test compounds were serially diluted in medium (RPMI 1640, 10% fetal calf serum (FCS), and gentamycin) in 96-well plates (Costar 3598) using a Cetus Pro/Pette. Exponentially growing MT4 cells were harvested and centrifuged at 1000 rpm for 10 min in a Jouan centrifuge (model CR 4 12). Cell pellets were resuspended in fresh medium (RPMI 1640, 20% FCS, 20% IL-2, and gentamycin) to a density of 5×10^5 cells/ml. […] The plates were analyzed in an automated assay instrument (Screen Machine, Idexx Laboratories). […] The assay makes use of a propidium iodide dye to estimate the DNA content of each well. • B. For MTS readout, 20 μl CellTiter 96 AQ One Solution reagent (Promega #G3582) was added to each well. At 75 minutes following the addition of MTS reagent, absobance was read at 492 nm using a Tecan Sunrise 96-well plate reader. […]
For each assay plate, the results (relative fluorescence units, rfU, or OD values) of wells containing uninfected cells or infected cells with no compound were averaged, respectively. […] Percent of cells remaining is determined by the following formula: Percent of cells remaining=(compound-treated uninfected cells, rfU, or OD values/untreated uninfected cells)×100. […]

Cc1cn([C@H]2C[C@H](N=[N+]=[N-])[C@@H](CO)O2)c(=O)[nH]c1=O [3′-azido-3′-deoxythymidine] showed an IC50 of 40 to 120 nM.
